The source of these data is PubChem BioAssay AID1963968 (Molecular Pharmacology Branch, DTP, NCI, 2024).

SMILES strings stand for the structures. Values joined by “and” are separate entries in the source; they are usually repeats but may differ in a detail not shown here. Equal values may be shown once.

What is called viability, T/C is the result in the treated group divided by that in the control group, in per cent. Usually IC50 stands for the midpoint of a concentration-inhibition curve.

The assay concerns 945468-187-T-J3-PDC spheroids with HUVEC/MSC, viability. As to the kind of experiment: Anticancer human tumor 945468-187-T-J3-PDC patient-derived rectal carcinoma cell line growth inhibition [PI3K]. As to conditions: for viability, T/C: stronger effect = lower value. An excerpt:
Combinatorial screen of targeted agents with the PI3K inhibitors inavolisib, alpelisib, duvelisib, and copanlisib in multi-cell type tumor spheroids
A high-throughput screen of multi-cell type tumor spheroids was designed to identify active combinations of targeted small molecules and PI3K pathway inhibitors. Complex spheroids include a stromal component modeled by human endothelial cells (HUVEC) and fibroblasts modeled by human mesenchymal stem cells (MSCs). The concentration ranges selected for each drug and investigational agent were based upon clinically achievable concentrations if the clinical Cmax of the agent was known.
Compounds. The drugs and investigational agents: inavolisib (NSC800729), alpelisib (NSC765974), duvelisib (NSC772469), copanlisib (NSC816437), ipatasertib (NSC767898), afuresertib (NSC778305), talazoparib (NSC767125), sapanisertib (NSC764658), selumetinib (NSC741078), tovorafenib (DAY101, NSC766906), vemurafenib (NSC761431), ravoxertinib (NSC781343), sotorasib (NSC818433), MRTX1133 (NSC 836407), abemaciclib (NSC 768073), palbociclib (NSC758247), venetoclax (NSC 766270), SY5609 (NSC837396), enzalutamide (NSC755605), and darolutamide (NSC825331), were obtained from the National Cancer Institute (NCI) Developmental Therapeutics Program Chemical Repository. The FDA-approved anticancer drug set is available from the NCI Developmental Therapeutics Program. […] The stock solutions were prepared in dimethyl sulfoxide (DMSO, Sigma-Aldrich, St. Louis, MO, cat. D2650) at 800-fold the tested concentration and stored at -70 degrees C prior to their use. All drugs and investigational agents were tested over a range starting from a high concentration at or near the clinical Cmax and decreasing in half-log increments. If the clinical Cmax for an agent had not been determined, the highest concentration tested was 10 microM.
Cell Culture. All cells were maintained in an incubator at 37 degrees C and 5% CO2 with 95% humidity. The PDC lines were cultured according to standard operating procedures established by the NCI PDMR (https://pdmr.cancer.gov/sops/default.htm). All PDCs were thawed and cultured in Matrigel-coated flasks prepared with a working solution of 1X Ham's F-12 nutrient mix, without supplementation (Invitrogen, Waltham, MA, cat. 11765054), 100 U/mL penicillin-streptomycin (Invitrogen, cat. 15140122), and 2.5% Matrigel (Corning Inc., Corning, NY, cat. 354248) for the first three passages. The 354836-022-R-J1-PDC, 475296-252-R-J1-PDC, and 997726-040-R-J2-PDC lines were cultured in 6A media, which includes advanced DMEM/F-12 (Thermo Fisher Scientific, cat. 12634028), 10 mM HEPES (Thermo Fisher Scientific, cat. 15630080), 1X GlutaMAX supplement (Thermo Fisher Scientific, cat. 35050061), 0.1 mg/mL primocin (InvivoGen, San Diego, CA, cat. ant-pm-2), 10% defined fetal bovine serum, heat inactivated (HyClone Laboratories Inc., Logan, UT, cat. SH30070.03HI), 50% L-WRN conditioned media (ATCC, cat. CRL-3276), 1.25 mM N-Acetyl-L-cysteine (Sigma-Aldrich, cat. A9165), 10 mM nicotinamide (Sigma-Aldrich, cat. N0636), 1X B-27 supplement (Thermo Fisher Scientific, cat. 17504044), 1X N-2 supplement (Thermo Fisher Scientific, cat. 17502048), and 10 microM Y-27632 dihydrochloride (Tocris Bioscience, Bristol, United Kingdom, cat. 1254). The 624824-186-R-J2-PDC line was cultured in 6C/Colon 1B media, which includes all 6A media components plus 50 ng/mL human EGF recombinant protein (Thermo Fisher Scientific, cat. PHG0311). […]

The mark [1] stands for this setting: compound alone, run of 06/12/2023.
[2] abbreviates: compound alone, run of 06/13/2023.
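Further: spheroids exposed to agents for 7 days before viability read.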

As to `CC(=O)c1c(C)c2cnc(Nc3ccc(N4CCNCC4)cn3)nc2n(C2CCCC2)c1=O`, the viability, T/C was 101% [middle of 4 runs] (compound 0.000316 µM); 100% [middle of 4 runs] (compound 0.001 µM); 83.2% and 102% (2×) and 91.3% (compound 0.00316 µM); 93.4% [middle of 4 runs] (compound 0.01 µM); 113% [middle of 4 runs] (compound 0.0316 µM); 103% (2×) and 106% and 99.3% (compound 0.1 µM). In addition, under “curve of compound”, the IC50 was over 0.1 µM.

In the case of `CC(C)NCC(C(=O)N1CCN(c2ncnc3c2C(C)CC3O)CC1)c1ccc(Cl)cc1` (stereo not given), the viability, T/C is 92.6% [middle of 4 runs] (compound 0.0316 µM); 100% [middle of 4 runs] (compound 0.316 µM); 94.6% [middle of 4 runs] (compound 1 µM); 65.2% [middle of 4 runs] (compound 3.16 µM); 39.3% [middle of 4 runs] (compound 10 µM).

In the case of `CC(C)n1nc(-c2ccc3oc(N)nc3c2)c2c(N)ncnc21`, the viability, T/C was 91.3% [middle of 4 runs] (compound 0.000316 µM), 94.2% [middle of 4 runs] (compound 0.001 µM), 104% [middle of 4 runs] (compound 0.00316 µM) and 102% [middle of 4 runs] (compound 0.01 µM). For the same compound, under “curve of compound”, the half-maximal inhibitory concentration (IC50) was > 0.1 µM and 0.0939 µM.

For `CC(Cn1ccc(-c2ccc(C#N)c(Cl)c2)n1)NC(=O)c1cc(C(C)O)[nH]n1` (stereo not given), the viability, T/C runs as follows: (compound 0.0316 µM) 89.7% [middle of 4 runs]; (compound 0.1 µM) 97.5% [middle of 4 runs]; (compound 0.316 µM) 94.9% [middle of 4 runs]; (compound 1 µM) 99.5% [middle of 4 runs]; (compound 3.16 µM) 114% [middle of 4 runs]; (compound 10 µM) 89.8% and 101% (2×) and 99%. Moreover, the IC50 (curve of compound) was over 10 µM.

Regarding `CC(Nc1ccc2c(c1)OCCn1cc(N3C(=O)OCC3C(F)F)nc1-2)C(N)=O` (stereo not given), the viability, T/C runs as follows: (compound 0.00316 µM) 103% [middle of 7 runs]; (compound 0.01 µM) 97.2% [middle of 7 runs]; (compound 0.0316 µM) 99.6% [middle of 7 runs]; (compound 0.316 µM) 99.6% [middle of 7 runs]; (compound 1 µM) 73% [middle of 7 runs]. Under setting [1], the IC50 is over 1 µM.

For the compound `CC(Nc1ncnc2nc[nH]c12)c1cc2cccc(Cl)c2c(=O)n1-c1ccccc1` (stereo not given), the viability, T/C reads like this: (compound 0.0316 µM) 100% [middle of 8 runs]; (compound 0.1 µM) 96% [middle of 8 runs]; (compound 0.316 µM) 96% [middle of 8 runs]; (compound 1 µM) 99.5% [middle of 8 runs]; (compound 3.16 µM) 98.2% [middle of 8 runs]; (compound 10 µM) 98.8% [middle of 8 runs]. The half-inhibitory concentration (IC50) under setting [2] is over 10 µM.

In the case of `CC1(C)CCC(CN2CCN(c3ccc(C(=O)NS(=O)(=O)c4ccc(NCC5CCOCC5)c([N+](=O)[O-])c4)c(Oc4cnc5[nH]ccc5c4)c3)CC2)=C(c2ccc(Cl)cc2)C1`, the viability, T/C is, setting by setting: (compound 0.0316 µM) 105% [middle of 4 runs]; (compound 0.1 µM) 110% [middle of 4 runs]; (compound 0.316 µM) 101% [middle of 4 runs]; (compound 1 µM) 112% [middle of 4 runs]; (compound 3.16 µM) 130% [middle of 4 runs]. Besides, where the note is “curve of compound”, the IC50 is > 10 µM and 7.28 µM and 6.4 µM.

`CCCS(=O)(=O)Nc1ccc(F)c(C(=O)c2c[nH]c3ncc(-c4ccc(Cl)cc4)cc23)c1F`: the viability, T/C was 105% [middle of 4 runs] (compound 0.0316 µM), 97.1% [middle of 4 runs] (compound 0.1 µM), 102% [middle of 4 runs] (compound 1 µM) and 103% [middle of 4 runs] (compound 3.16 µM). The IC50 (curve of compound) was 6.88 µM [middle of 4 runs].

Regarding `CCN1CCN(Cc2ccc(Nc3ncc(F)c(-c4cc(F)c5nc(C)n(C(C)C)c5c4)n3)nc2)CC1`, the viability, T/C was 91.2% [middle of 4 runs] (compound 0.00316 µM); 103% and 85.4% and 90.3% (2×) (compound 0.01 µM); 97.6% [middle of 4 runs] (compound 0.0316 µM); 107% [middle of 4 runs] (compound 0.1 µM); 110% [middle of 4 runs] (compound 0.316 µM); 99.2% [middle of 4 runs] (compound 1 µM). Where the note is “curve of compound”, the IC50 is over 1 µM.

In the case of `CNC(=O)c1ccc(N2C(=S)N(c3ccc(C#N)c(C(F)(F)F)c3)C(=O)C2(C)C)cc1F`, the viability, T/C reads like this: (compound 0.0316 µM) 100% (2×) and 113% and 95%; (compound 0.1 µM) 108% [middle of 4 runs]; (compound 0.316 µM) 104% [middle of 4 runs]; (compound 3.16 µM) 113% (2×) and 102% and 121%; (compound 10 µM) 109% [middle of 4 runs]. For the same compound, the half-maximal inhibitory concentration (IC50) (curve of compound) was over 10 µM.

On to `COc1c(OCCCN2CCOCC2)ccc2c3n(c(=NC(=O)c4cnc(N)nc4)nc12)CCN3`, for which the viability, T/C (compound 0.00316 µM) was 96% [middle of 8 runs]; the viability, T/C (compound 0.01 µM) is 96.8% [middle of 8 runs]; the viability, T/C (compound 0.0316 µM) is 95.7% [middle of 8 runs]; the viability, T/C (compound 0.1 µM) is 39.7% [middle of 8 runs]; the viability, T/C (compound 0.316 µM) was 19.6% [middle of 8 runs]; the viability, T/C (compound 1 µM) is 16.4% [middle of 8 runs]. For the same compound, under setting [2], the IC50 is 80.4 nM [middle of 8 runs].

As to `C[C@@H](NC(=O)c1ncnc(N)c1Cl)c1ncc(C(=O)Nc2cc(C(F)(F)F)c(Cl)cn2)s1`, the viability, T/C (compound 0.0316 µM) was 94.2% [middle of 4 runs]; the viability, T/C (compound 0.1 µM) is 104% [middle of 4 runs]; the viability, T/C (compound 0.316 µM) was 101% (2×) and 91.3% and 98.2%; the viability, T/C (compound 1 µM) was 105% [middle of 4 runs]; the viability, T/C (compound 3.16 µM) was 106% [middle of 4 runs]; the viability, T/C (compound 10 µM) is 108% [middle of 4 runs]. The 50% inhibitory concentration (IC50) (curve of compound) was over 10 µM.

As to `Cc1nc(NC(=O)N2CCCC2C(N)=O)sc1-c1ccnc(C(C)(C)C(F)(F)F)c1` (stereo not given), the viability, T/C by setting is: (compound 0.0316 µM) 90% [middle of 7 runs]; (compound 0.1 µM) 96% [middle of 8 runs]; (compound 0.316 µM) 99.1% [middle of 8 runs]; (compound 1 µM) 103% [middle of 8 runs]; (compound 3.16 µM) 106% [middle of 8 runs]; (compound 10 µM) 62.1% [middle of 8 runs]. Besides, the IC50 under setting [1] is over 10 µM.

For the compound `Cn1cnc2c(F)c(Nc3ccc(Br)cc3Cl)c(C(=O)NOCCO)cc21`, the viability, T/C is 103% [middle of 4 runs] (compound 0.00949 µM); 109% [middle of 4 runs] (compound 0.03 µM); 116% [middle of 4 runs] (compound 0.0949 µM); 119% (2×) and 99.5% and 130% (compound 0.3 µM); 108% [middle of 4 runs] (compound 0.949 µM). The IC50 (curve of compound) is over 3 µM.

`Cn1nccc1Nc1nccc(-c2ccn(C(CO)c3ccc(Cl)c(F)c3)c(=O)c2)n1` (stereo not given): the viability, T/C reads like this: (compound 0.0316 µM) 95.4% [middle of 4 runs]; (compound 0.1 µM) 104% [middle of 4 runs]; (compound 1 µM) 111% [middle of 4 runs]; (compound 3.16 µM) 136% (2×) and 113% and 127%. For the same compound, the IC50 (curve of compound) is over 10 µM.

In the case of `Cn1ncnc1[C@H]1c2n[nH]c(=O)c3cc(F)cc(c23)N[C@@H]1c1ccc(F)cc1`, the viability, T/C runs as follows: (compound 0.000316 µM) 101% and 102% and 91.8%; (compound 0.001 µM) 91.2% and 106% and 101%; (compound 0.00316 µM) 99.4% and 89% and 90.5%; (compound 0.01 µM) 86.2% and 91.3% and 94.7%; (compound 0.0316 µM) 98.2% and 92.9% and 117%; (compound 0.1 µM) 110% and 96.3% and 103%. Also, the IC50 (curve of compound) was over 0.1 µM.
